How the values were obtained:
S. pneumoniae D39V [1] = assay: Bliss interaction score (quartile over a dose matrix) (fitness difference); higher = more antagonism (negative = synergy)
Summary of the method: (§1)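 The Bliss score is observed minus expected fitness, where expected fitness is the product of the single-drug fitness values inferred from the combination data. Fitness is the OD595 at the onset of stationary phase over the plate's robust no-drug mean, capped at 1. Scores are summarised by quartiles over technical, biological and donor/recipient replicates.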

S. aureus DSM 20231 [2] = assay: as above
Summary of the method: as §1

B. subtilis 168 [3] = assay: as above
Summary of the method: as §1

S. aureus Newman [4] = assay: as above
Summary of the method: as §1

S. aureus DSM 20231 [5] = assay: fitness (endpoint OD595 vs no drug) (fraction); higher = more growth
Summary of the method: (§2)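 Fitness was measured as bacterial growth in 384-well plates inoculated at OD595 0.01 (30 µl, or 55 µl for S. pneumoniae). Media were TSB, LB Lennox or CY, at 37 °C. OD595 was read every 30 min for 14 h and background-subtracted against the first reading. Fitness is OD595 at the transition into stationary phase divided by the robust mean of no-drug control wells, capped at 1.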

B. subtilis 168 [6] = assay: as above
Summary of the method: as §2

S. pneumoniae D39V [7] = assay: as above
Summary of the method: as §2

S. aureus Newman [8] = assay: as above
Summary of the method: as §2
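For Bliss interaction score (quartile over a dose matrix) in this document: first quartile when negative (synergy) and third quartile when positive (antagonism).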
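For fitness (endpoint OD595 vs no drug) in this document: OD595 on entry to stationary phase over no-drug wells; at most 1.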

Cc1ncc([N+](=O)[O-])n1CCO [Metronidazole] + COc1cc(Cc2cnc(N)nc2N)cc(OC)c1OC [Trimethoprim]
Details | Bliss interaction score
B. subtilis 168 [3] | 0.11
S. aureus DSM 20231 [2] | -0.0577
S. aureus Newman [4] | 0.0902
S. pneumoniae D39V [1] | 0.232

fitness
Details | first compound 0.625 µg/mL | first compound 1.25 µg/mL | first compound 2.5 µg/mL
B. subtilis 168 [6], partner 0.25 µg/mL | 0.743 | 0.724 | 0.72
B. subtilis 168 [6], partner 0.5 µg/mL | 0.568 | 0.531 | 0.471
S. aureus DSM 20231 [5], partner 0.125 µg/mL | 0.704 | 0.744 | 0.749
S. aureus DSM 20231 [5], partner 0.25 µg/mL | 0.607 | 0.619 | 0.652
S. aureus DSM 20231 [5], partner 1 µg/mL | 0.0438 | 0.0565 | 0.0572

fitness, B. subtilis 168 [6], one replicate
Details | partner 0.1 µg/mL | partner 0.125 µg/mL | partner 0.2 µg/mL | partner 0.4 µg/mL | partner 1 µg/mL | partner 2 µg/mL
first compound 0.625 µg/mL | 0.832 | 0.747 | 0.759 | 0.572 | 0.419 | 0.373
first compound 1.25 µg/mL | 0.866 | 0.772 | 0.83 | 0.555 | 0.341 | 0.361
first compound 2.5 µg/mL | 0.956 | 0.785 | 0.828 | 0.578 | 0.396 | 0.44

COc1ccc(C[C@H](N)C(=O)N[C@H]2[C@@H](O)[C@H](n3cnc4c(N(C)C)ncnc43)O[C@@H]2CO)cc1 [Puromycin] + CN(C)c1cc(NC(=O)CNC(C)(C)C)c(O)c2c1C[C@H]1C[C@H]3[C@H](N(C)C)C(O)=C(C(N)=O)C(=O)[C@@]3(O)C(O)=C1C2=O [Tigecycline]
Details | Bliss interaction score
B. subtilis 168 [3] | -0.044
S. aureus DSM 20231 [2] | 0.0709
S. aureus Newman [4] | 0.0585
S. pneumoniae D39V [1] | 0.062

fitness
Details | first compound 0.39 µg/mL | first compound 0.78 µg/mL | first compound 1 µg/mL | first compound 1.56 µg/mL | first compound 2 µg/mL | first compound 4 µg/mL
B. subtilis 168 [6], partner 0.039 µg/mL | 0.945 | 0.976 | – | 0.953 | – | –
B. subtilis 168 [6], partner 0.078 µg/mL | 0.945 | 0.925 | – | 0.958 | – | –
B. subtilis 168 [6], partner 0.156 µg/mL | 0.895 | 0.964 | – | 0.924 | – | –
S. aureus Newman [8], partner 0.039 µg/mL | ≥ 1 | 0.999 | – | 0.985 | – | –
S. aureus Newman [8], partner 0.078 µg/mL | ≥ 1 | 0.995 | – | 0.995 | – | –
S. aureus Newman [8], partner 0.156 µg/mL | ≥ 1 | 0.991 | – | ≥ 1 | – | –
S. pneumoniae D39V [7], partner 0.65 µg/mL | – | – | 0.921 | – | 0.892 | 0.723
S. pneumoniae D39V [7], partner 1.3 µg/mL | – | – | 0.927 | – | 0.931 | 0.71
S. pneumoniae D39V [7], partner 2.6 µg/mL | – | – | ≥ 1 | – | 0.941 | 0.797

fitness, B. subtilis 168 [6], one replicate
Details | first compound 0.39 µg/mL | first compound 0.78 µg/mL | first compound 1.56 µg/mL
partner 0.125 µg/mL | ≥ 1 | 0.997 | ≥ 1
partner 0.25 µg/mL | 0.862 | 0.938 | 0.92
partner 0.5 µg/mL | 0.908 | 0.893 | 0.903

COc1ccc(C[C@H](N)C(=O)N[C@H]2[C@@H](O)[C@H](n3cnc4c(N(C)C)ncnc43)O[C@@H]2CO)cc1 [Puromycin] + CN[C@@H]1[C@H](O[C@H]2[C@H](O[C@H]3[C@H](O)[C@@H](O)[C@H](N=C(N)N)[C@@H](O)[C@@H]3N=C(N)N)O[C@@H](C)[C@]2(O)C=O)O[C@@H](CO)[C@H](O)[C@H]1O [Streptomycin]
Details | Bliss interaction score
B. subtilis 168 [3] | -0.226
S. aureus DSM 20231 [2] | -0.193
S. aureus Newman [4] | 0.0431
S. pneumoniae D39V [1] | -0.0971

fitness
Details | first compound 0.39 µg/mL | first compound 0.78 µg/mL | first compound 1 µg/mL | first compound 1.56 µg/mL | first compound 2 µg/mL | first compound 4 µg/mL
B. subtilis 168 [6], partner 2 µg/mL | 0.908 | 0.878 | – | 0.796 | – | –
B. subtilis 168 [6], partner 4 µg/mL | 0.27 | 0.143 | – | 0.106 | – | –
B. subtilis 168 [6], partner 8 µg/mL | 0.0282 | 0.0233 | – | 0.0357 | – | –
S. aureus Newman [8], partner 1 µg/mL | ≥ 1 | 0.968 | – | 0.991 | – | –
S. aureus Newman [8], partner 2 µg/mL | ≥ 1 | 0.964 | – | 0.939 | – | –
S. pneumoniae D39V [7], partner 2 µg/mL | – | – | 0.933 | – | 0.914 | 0.739
S. pneumoniae D39V [7], partner 4 µg/mL | – | – | 0.956 | – | 0.906 | 0.746
S. pneumoniae D39V [7], partner 8 µg/mL | – | – | 0.876 | – | 0.784 | 0.567

S. pneumoniae D39V [7], partner 16 µg/mL, one replicate
Details | fitness
first compound 1 µg/mL | 0.748
first compound 2 µg/mL | 0.643
first compound 4 µg/mL | 0.254

CN(C)c1cc(NC(=O)CNC(C)(C)C)c(O)c2c1C[C@H]1C[C@H]3[C@H](N(C)C)C(O)=C(C(N)=O)C(=O)[C@@]3(O)C(O)=C1C2=O [Tigecycline] + CC1=C\[C@@H](O)CC(=O)Cc2nc(co2)C(=O)N2CCC=C2C(=O)O[C@H](C(C)C)[C@H](C)/C=C/C(=O)NC\C=C\1 [Virginiamycin M1]
Details | Bliss interaction score
B. subtilis 168 [3] | -0.0387
S. aureus DSM 20231 [2] | 0.109
S. aureus Newman [4] | -0.0271
S. pneumoniae D39V [1] | -0.0538

one replicate
Details | fitness
B. subtilis 168 [6], first compound 0.125 µg/mL, partner 0.0625 µg/mL | ≥ 1
B. subtilis 168 [6], first compound 0.125 µg/mL, partner 0.125 µg/mL | ≥ 1
B. subtilis 168 [6], first compound 0.125 µg/mL, partner 0.25 µg/mL | ≥ 1
B. subtilis 168 [6], first compound 0.25 µg/mL, partner 0.0625 µg/mL | 0.908
B. subtilis 168 [6], first compound 0.25 µg/mL, partner 0.125 µg/mL | 0.908
B. subtilis 168 [6], first compound 0.25 µg/mL, partner 0.25 µg/mL | 0.98
B. subtilis 168 [6], first compound 0.5 µg/mL, partner 0.0625 µg/mL | 0.959
B. subtilis 168 [6], first compound 0.5 µg/mL, partner 0.125 µg/mL | 0.903
B. subtilis 168 [6], first compound 0.5 µg/mL, partner 0.25 µg/mL | 0.925
S. aureus Newman [8], first compound 0.039 µg/mL, partner 0.5 µg/mL | 0.817
S. aureus Newman [8], first compound 0.039 µg/mL, partner 1 µg/mL | 0.983
S. aureus Newman [8], first compound 0.039 µg/mL, partner 2 µg/mL | 0.768
S. aureus Newman [8], first compound 0.078 µg/mL, partner 0.5 µg/mL | 0.817
S. aureus Newman [8], first compound 0.078 µg/mL, partner 1 µg/mL | 0.877
S. aureus Newman [8], first compound 0.078 µg/mL, partner 2 µg/mL | 0.742
S. aureus Newman [8], first compound 0.156 µg/mL, partner 0.5 µg/mL | 0.86
S. aureus Newman [8], first compound 0.156 µg/mL, partner 1 µg/mL | 0.872
S. aureus Newman [8], first compound 0.156 µg/mL, partner 2 µg/mL | 0.745
S. pneumoniae D39V [7], first compound 0.65 µg/mL, partner 0.15 µg/mL | 0.982
S. pneumoniae D39V [7], first compound 0.65 µg/mL, partner 0.3 µg/mL | 0.92
S. pneumoniae D39V [7], first compound 1.3 µg/mL, partner 0.15 µg/mL | 0.963
S. pneumoniae D39V [7], first compound 1.3 µg/mL, partner 0.3 µg/mL | 0.914
S. pneumoniae D39V [7], first compound 2.6 µg/mL, partner 0.15 µg/mL | 0.928
S. pneumoniae D39V [7], first compound 2.6 µg/mL, partner 0.3 µg/mL | 0.86

fitness
Details | first compound 0.039 µg/mL | first compound 0.078 µg/mL | first compound 0.156 µg/mL | first compound 0.65 µg/mL | first compound 1.3 µg/mL | first compound 2.6 µg/mL
B. subtilis 168 [6], partner 0.0625 µg/mL | 0.977 | 0.987 | 0.96 | – | – | –
B. subtilis 168 [6], partner 0.125 µg/mL | 0.95 | 0.938 | 0.954 | – | – | –
B. subtilis 168 [6], partner 0.25 µg/mL | 0.997 | 0.989 | 0.953 | – | – | –
S. aureus Newman [8], partner 0.0625 µg/mL | 0.982 | ≥ 1 | ≥ 1 | – | – | –
S. aureus Newman [8], partner 0.125 µg/mL | 0.998 | 0.999 | ≥ 1 | – | – | –
S. aureus Newman [8], partner 0.25 µg/mL | 0.993 | 0.996 | ≥ 1 | – | – | –
S. pneumoniae D39V [7], partner 0.5 µg/mL | – | – | – | 0.99 | 0.961 | 0.976
S. pneumoniae D39V [7], partner 1 µg/mL | – | – | – | 0.946 | 0.951 | 0.956
S. pneumoniae D39V [7], partner 2 µg/mL | – | – | – | 0.919 | 0.904 | 0.931
